ChEMBL document CHEMBL4043212, “Design, synthesis and biological evaluation of 1,3-diphenylbenzo[f][1,7]naphthyrdines” (2017)

Assays:
[1] = system: NCI-H23; assay: Cytotoxicity against human NCI-H23 cells assessed as inhibition of cell growth incubated for 72 hrs by SRB assay; assay type: functional
[2] = target: DNA topoisomerase 2-alpha (Homo sapiens) (UniProt P11388); assay: Inhibition of human topoisomerase-2 alpha assessed as reduction in conversion of super coiled plasmid DNA to relaxed DNA at 100 uM using supercoiled pBR322 DNA as substrate after 30 mins by ethidium bromide staining based agarose gel electrophoresis method relative to control
Chain of DNA topoisomerase 2-alpha (Homo sapiens) (P11388 whole entry): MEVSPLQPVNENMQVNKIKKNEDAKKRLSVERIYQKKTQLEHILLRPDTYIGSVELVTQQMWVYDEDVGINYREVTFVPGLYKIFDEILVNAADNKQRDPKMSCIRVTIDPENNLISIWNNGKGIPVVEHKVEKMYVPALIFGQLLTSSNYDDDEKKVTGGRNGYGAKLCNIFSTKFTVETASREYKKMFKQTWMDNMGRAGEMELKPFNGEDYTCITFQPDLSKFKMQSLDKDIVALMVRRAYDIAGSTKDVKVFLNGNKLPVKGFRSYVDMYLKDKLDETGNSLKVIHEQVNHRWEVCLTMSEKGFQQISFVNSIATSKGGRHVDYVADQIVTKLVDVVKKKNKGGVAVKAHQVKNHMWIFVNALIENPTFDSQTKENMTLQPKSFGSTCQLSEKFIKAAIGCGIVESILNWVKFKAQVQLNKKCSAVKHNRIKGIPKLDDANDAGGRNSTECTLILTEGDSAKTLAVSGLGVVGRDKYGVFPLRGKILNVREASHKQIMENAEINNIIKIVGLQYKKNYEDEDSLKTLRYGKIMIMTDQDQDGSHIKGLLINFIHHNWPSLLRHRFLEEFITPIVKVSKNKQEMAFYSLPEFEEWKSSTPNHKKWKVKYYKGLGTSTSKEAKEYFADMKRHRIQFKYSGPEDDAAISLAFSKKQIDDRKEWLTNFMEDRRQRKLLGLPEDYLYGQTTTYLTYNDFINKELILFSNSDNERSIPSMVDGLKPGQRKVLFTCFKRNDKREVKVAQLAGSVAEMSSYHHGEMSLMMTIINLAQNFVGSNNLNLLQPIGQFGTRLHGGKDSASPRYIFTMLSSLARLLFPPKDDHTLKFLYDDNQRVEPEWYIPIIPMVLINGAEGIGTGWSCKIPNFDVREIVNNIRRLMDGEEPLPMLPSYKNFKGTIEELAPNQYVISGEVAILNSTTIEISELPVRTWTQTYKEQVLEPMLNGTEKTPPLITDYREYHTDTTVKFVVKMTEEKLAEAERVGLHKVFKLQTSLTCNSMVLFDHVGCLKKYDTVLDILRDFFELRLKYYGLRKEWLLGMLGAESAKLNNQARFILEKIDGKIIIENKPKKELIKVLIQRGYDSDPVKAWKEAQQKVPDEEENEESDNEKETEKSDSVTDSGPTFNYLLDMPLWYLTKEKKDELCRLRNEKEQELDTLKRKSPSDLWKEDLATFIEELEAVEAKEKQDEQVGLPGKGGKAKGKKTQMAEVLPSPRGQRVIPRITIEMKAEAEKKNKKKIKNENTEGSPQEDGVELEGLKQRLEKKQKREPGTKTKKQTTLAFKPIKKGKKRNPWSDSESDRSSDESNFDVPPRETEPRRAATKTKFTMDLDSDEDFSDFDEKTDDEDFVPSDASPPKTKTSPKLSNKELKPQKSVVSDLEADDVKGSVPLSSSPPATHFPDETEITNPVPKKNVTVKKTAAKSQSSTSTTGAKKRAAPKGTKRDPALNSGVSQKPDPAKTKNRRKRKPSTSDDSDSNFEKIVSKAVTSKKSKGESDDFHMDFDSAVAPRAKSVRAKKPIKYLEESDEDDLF

[3] = system: NUGC-3; assay: Cytotoxicity against human NUGC3 cells assessed as inhibition of cell growth incubated for 72 hrs by SRB assay; assay type: functional
[4] = system: HCT-15; assay: Cytotoxicity against human HCT15 cells assessed as inhibition of cell growth incubated for 72 hrs by SRB assay; assay type: functional
[5] = system: MDA-MB-231; assay: Cytotoxicity against human MDA-MB-231 cells assessed as inhibition of cell growth incubated for 72 hrs by SRB assay; assay type: functional
[6] = system: PC-3; assay: Cytotoxicity against human PC3 cells assessed as inhibition of cell growth incubated for 72 hrs by SRB assay; assay type: functional
[7] = system: ACHN; assay: Cytotoxicity against human ACHN cells assessed as inhibition of cell growth incubated for 72 hrs by SRB assay; assay type: functional
[8] = target: DNA topoisomerase 2-alpha (Homo sapiens) (UniProt P11388); assay: Potency index, ratio of inhibitory activity of etoposide to test compound for inhibition of human topoisomerase-2 alpha at 100 uM using supercoiled pBR322 DNA as substrate after 30 mins by ethidium bromide staining based agarose gel electrophoresis method relative to control
[9] = target: DNA topoisomerase 2-alpha (Homo sapiens) (UniProt P11388); assay: Inhibition of human topoisomerase-2 alpha assessed as reduction in conversion of super coiled plasmid DNA to relaxed DNA at 20 uM using supercoiled pBR322 DNA as substrate after 30 mins by ethidium bromide staining based agarose gel electrophoresis method relative to control
[10] = target: DNA topoisomerase 2-alpha (Homo sapiens) (UniProt P11388); assay: Potency index, ratio of inhibitory activity of etoposide to test compound for inhibition of human topoisomerase-2 alpha at 20 uM using supercoiled pBR322 DNA as substrate after 30 mins by ethidium bromide staining based agarose gel electrophoresis method relative to control

| Structure (SMILES) | GI50 ([1]; Homo sapiens, NCI-H23, 72 h) | inhibition [2] | GI50 ([3]; Homo sapiens, NUGC-3, 72 h) | GI50 ([4]; Homo sapiens, HCT-15, 72 h) | GI50 ([5]; Homo sapiens, MDA-MB-231, 72 h) | GI50 ([6]; Homo sapiens, PC-3, 72 h) | GI50 ([7]; Homo sapiens, ACHN, 72 h) | Ratio [8] | inhibition [9] | Ratio [10] | GI50 [1] | GI50 [3] | GI50 [4] | GI50 [5] | GI50 [6] | GI50 [7] |
| --- | --- | --- | --- | --- | --- | --- | --- | --- | --- | --- | --- | --- | --- | --- | --- | --- |
| COc1ccc(-c2cc(-c3ccc(Cl)cc3)nc3cnc4ccccc4c23)cc1 | 1.7 µM | 3% | 2.17 µM | 4.82 µM | 2.94 µM | 1.53 µM | 1.69 µM |  |  |  |  |  |  |  |  |  |
| COc1ccc(-c2cc(-c3ccc(N(C)C)cc3)nc3cnc4ccccc4c23)cc1 | 1.72 µM | 91.3% | 1.95 µM | 1.86 µM | 2.3 µM | 2.98 µM | 1.98 µM | 1.3 | 42.4% | 1.2 |  |  |  |  |  |  |
| COc1ccc(-c2cc(-c3cccc4ccccc34)nc3cnc4ccccc4c23)cc1 [listing 1 of 2 here] |  |  |  |  |  |  |  |  |  |  | 1.81 µM | 1.68 µM | 1.98 µM | 1.51 µM | 1.57 µM | 2.25 µM |
| COc1ccc(-c2cc(-c3cccc(C#N)c3)nc3cnc4ccccc4c23)cc1 | 1.89 µM | 0.2% | 2.03 µM | 1.79 µM | 1.79 µM | 3.15 µM | 3.86 µM |  |  |  |  |  |  |  |  |  |
| COc1ccc(-c2cc(-c3ccc4ccccc4c3)nc3cnc4ccccc4c23)cc1 | > 10 µM |  | > 10 µM | > 10 µM | > 10 µM | > 10 µM | > 10 µM |  |  |  |  |  |  |  |  |  |
| COc1ccc(-c2cc(-c3ccc([N+](=O)[O-])cc3)nc3cnc4ccccc4c23)cc1 [listing 1 of 2 here] |  |  |  |  |  |  |  |  |  |  | > 10 µM | > 10 µM | > 10 µM | > 10 µM | > 10 µM | > 10 µM |
| COc1ccc(-c2cc(-c3ccc([N+](=O)[O-])cc3)nc3cnc4ccccc4c23)cc1 [listing 2 of 2 here] |  |  |  |  |  |  |  |  |  |  | 2.43 µM | 2.87 µM | 4.37 µM | 3.49 µM | 3.59 µM | 3.92 µM |
| COc1ccc(-c2cc(-c3ccc(OC)cc3)c3c(cnc4ccccc43)n2)cc1 | > 10 µM |  | > 10 µM | > 10 µM | > 10 µM | > 10 µM | > 10 µM |  |  |  |  |  |  |  |  |  |
| CCn1cc(-c2cc(-c3ccc(OC)cc3)c3c(cnc4ccccc43)n2)c2ccccc21 | 2.07 µM |  | 3.03 µM | 4.88 µM | 3.04 µM | 6.15 µM | 5.61 µM |  |  |  |  |  |  |  |  |  |
| COc1ccc(-c2cc(-c3cccc4ccccc34)nc3cnc4ccccc4c23)cc1 [listing 2 of 2 here] | 1.65 µM |  | 2.16 µM | 2.72 µM | 2.81 µM |  |  |  |  |  |  |  |  |  | 3.38 µM | 5.36 µM |
| COc1ccc(-c2cc(-c3ccccc3Br)nc3cnc4ccccc4c23)cc1 | > 10 µM |  | > 10 µM | > 10 µM | > 10 µM | > 10 µM | > 10 µM |  |  |  |  |  |  |  |  |  |
| COc1ccc(-c2cc(-c3ccc(OC)c4ccccc34)nc3cnc4ccccc4c23)cc1 | > 10 µM |  | > 10 µM | > 10 µM | > 10 µM | > 10 µM | > 10 µM |  |  |  |  |  |  |  |  |  |
| COc1cccc2c1C(=O)c1c(O)c3c(c(O)c1C2=O)C[C@@](O)(C(=O)CO)C[C@@H]3O[C@H]1C[C@H](N)[C@H](O)[C@H](C)O1 [DOXORUBICIN] | 0.09 µM |  | 0.086 µM | 0.077 µM | 0.068 µM | 0.076 µM | 0.08 µM |  |  |  |  |  |  |  |  |  |
| COc1ccc(-c2cc(-c3cccs3)nc3cnc4ccccc4c23)cc1 | 3.3 µM |  | 2 µM | 7.06 µM | 7.69 µM | 6.88 µM | 5.65 µM |  |  |  |  |  |  |  |  |  |
| CCCCCCn1cc(-c2cc(-c3ccc(OC)cc3)c3c(cnc4ccccc43)n2)c2ccccc21 | > 10 µM |  | > 10 µM | > 10 µM | > 10 µM | > 10 µM | > 10 µM |  |  |  |  |  |  |  |  |  |
| COc1ccc(-c2cc(-c3ccc(C(F)(F)F)cc3C(F)(F)F)nc3cnc4ccccc4c23)cc1 | > 10 µM |  | > 10 µM | > 10 µM | > 10 µM | > 10 µM | > 10 µM |  |  |  |  |  |  |  |  |  |
| COc1ccc(-c2c(C)c(-c3ccccc3Br)nc3cnc4ccccc4c23)cc1 | > 10 µM |  | > 10 µM | > 10 µM | > 10 µM | > 10 µM | > 10 µM |  |  |  |  |  |  |  |  |  |
| COc1ccc(-c2cc(-c3ccc(Br)cc3)nc3cnc4ccccc4c23)cc1 | 1.62 µM |  | 1.85 µM | 1.97 µM | 2.58 µM | 6.75 µM | 4.95 µM |  |  |  |  |  |  |  |  |  |
| COc1ccc(-c2cc(-c3ccccc3[N+](=O)[O-])nc3cnc4ccccc4c23)cc1 | > 10 µM |  | > 10 µM | > 10 µM | > 10 µM | > 10 µM | > 10 µM |  |  |  |  |  |  |  |  |  |
| COc1ccc(-c2cc(-c3ccc(C(F)(F)F)cc3)nc3cnc4ccccc4c23)cc1 | > 10 µM |  | > 10 µM | > 10 µM | > 10 µM | > 10 µM | > 10 µM |  |  |  |  |  |  |  |  |  |
| COc1ccc(-c2cc(-c3ccccc3Cl)nc3cnc4ccccc4c23)cc1 | 2.55 µM |  | 3 µM | 2.15 µM | 3.32 µM | 4.46 µM | 3.27 µM |  |  |  |  |  |  |  |  |  |
| COc1ccc(-c2cc(-c3ccccc3)nc3cnc4ccccc4c23)cc1 | 4.02 µM |  | 5.83 µM | 4.38 µM | 7.28 µM | 3.07 µM | 2.13 µM |  |  |  |  |  |  |  |  |  |
